Data reported in article PMC6496074, “The Evolution of Azole Resistance in Candida albicans Sterol 14α-Demethylase (CYP51) through Incremental Amino Acid Substitutions” (Antimicrobial Agents and Chemotherapy, 2019).
“And” between values parts separate entries of the source, which are not always exact repeats. Equal entries are not always repeated.

Key:
Experiment in all cases: CYP51 reconstitution assay
Assay type in all cases: biochemical
CaCYP51 Y132F = target: T1, CaCYP51 Y132F (Candida albicans, UniProt P10613, Y132F)
T1 construct: made in house; host or cells: E. coli DH5α (pCWori+)
Description: (§1) Azole antifungal agents were added in 2.5 μl dimethyl sulfoxide, followed by 10 min of incubation at 37°C prior to assay initiation with 4 mM β-NADPH-Na4. The samples were then shaken for 15 min at 37°C. Sterol metabolites were recovered by extraction with ethyl acetate, followed by derivatization with 0.1 ml N,O-bis(trimethylsilyl)trifluoroacetamide (BSTFA)–trimethylchlorosilane (TMCS) (99:1) and 0.3 ml anhydrous pyridine (2 h at 80°C), prior to analysis by gas chromatography-mass spectrometry (GC-MS) ([52]). IC50 determinations were performed in duplicate.

CaCYP51 S279F = target: T2, CaCYP51 S279F (Candida albicans, UniProt P10613, S279F)
T2 construct: made in house; host or cells: E. coli DH5α (pCWori+)
Description: as §1

CaCYP51 G448E = target: T3, CaCYP51 G448E (Candida albicans, UniProt P10613, G448E)
T3 construct: made in house; host or cells: E. coli DH5α (pCWori+)
Description: as §1

CaCYP51 D278N+G464S = target: T4, CaCYP51 D278N+G464S (Candida albicans, UniProt P10613, D278N/G464S)
T4 construct: made in house; host or cells: E. coli DH5α (pCWori+)
Description: as §1

CaCYP51 V437I = target: T5, CaCYP51 V437I (Candida albicans, UniProt P10613, V437I)
T5 construct: made in house; host or cells: E. coli DH5α (pCWori+)
Description: as §1

CaCYP51 Y447H = target: T6, CaCYP51 Y447H (Candida albicans, UniProt P10613, Y447H)
T6 construct: made in house; host or cells: E. coli DH5α (pCWori+)
Description: as §1

CaCYP51 F449Y = target: T7, CaCYP51 F449Y (Candida albicans, UniProt P10613, F449Y)
T7 construct: made in house; host or cells: E. coli DH5α (pCWori+)
Description: as §1

CaCYP51 S405F = target: T8, CaCYP51 S405F (Candida albicans, UniProt P10613, S405F)
T8 construct: made in house; host or cells: E. coli DH5α (pCWori+)
Description: as §1

CaCYP51 Y118A = target: T9, CaCYP51 Y118A (Candida albicans, UniProt P10613, Y118A)
T9 construct: made in house; host or cells: E. coli DH5α (pCWori+)
Description: as §1

CaCYP51 P230L = target: T10, CaCYP51 P230L (Candida albicans, UniProt P10613, P230L)
T10 construct: made in house; host or cells: E. coli DH5α (pCWori+)
Description: as §1

CaCYP51 F145L = target: T11, CaCYP51 F145L (Candida albicans, UniProt P10613, F145L)
T11 construct: made in house; host or cells: E. coli DH5α (pCWori+)
Description: as §1

CaCYP51 G464S = target: T12, CaCYP51 G464S (Candida albicans, UniProt P10613, G464S)
T12 construct: made in house; host or cells: E. coli DH5α (pCWori+)
Description: as §1

CaCYP51 Wild type = target: T13, CaCYP51 Wild type (Candida albicans, UniProt P10613); conditions: Wild type
T13 construct: made in house; host or cells: E. coli DH5α (pCWori+)
Description: as §1

CaCYP51 Y132H+K143R = target: T14, CaCYP51 Y132H+K143R (Candida albicans, UniProt P10613, K143R/Y132H)
T14 construct: made in house; host or cells: E. coli DH5α (pCWori+)
Description: as §1

CaCYP51 F126V = target: T15, CaCYP51 F126V (Candida albicans, UniProt P10613, F126V)
T15 construct: made in house; host or cells: E. coli DH5α (pCWori+)
Description: as §1

CaCYP51 R467K = target: T16, CaCYP51 R467K (Candida albicans, UniProt P10613, R467K)
T16 construct: made in house; host or cells: E. coli DH5α (pCWori+)
Description: as §1

CaCYP51 Y132H = target: T17, CaCYP51 Y132H (Candida albicans, UniProt P10613, Y132H); conditions: mean ± SD, duplicate
T17 construct: made in house; host or cells: E. coli DH5α (pCWori+)
Description: as §1

CaCYP51 Y257H = target: T18, CaCYP51 Y257H (Candida albicans, UniProt P10613, Y257H)
T18 construct: made in house; host or cells: E. coli DH5α (pCWori+)
Description: as §1

CaCYP51 G450E = target: T19, CaCYP51 G450E (Candida albicans, UniProt P10613, G450E)
T19 construct: made in house; host or cells: E. coli DH5α (pCWori+)
Description: as §1

CaCYP51 D278N = target: T20, CaCYP51 D278N (Candida albicans, UniProt P10613, D278N)
T20 construct: made in house; host or cells: E. coli DH5α (pCWori+)
Description: as §1

CaCYP51 Q474K = target: T21, CaCYP51 Q474K (Candida albicans, UniProt P10613, Q474K)
T21 construct: made in house; host or cells: E. coli DH5α (pCWori+)
Description: as §1

CaCYP51 V456I = target: T22, CaCYP51 V456I (Candida albicans, UniProt P10613, V456I)
T22 construct: made in house; host or cells: E. coli DH5α (pCWori+)
Description: as §1

CaCYP51 V488I = target: T23, CaCYP51 V488I (Candida albicans, UniProt P10613, V488I); conditions: mean ± SD, duplicate
T23 construct: made in house; host or cells: E. coli DH5α (pCWori+)
Description: as §1

CaCYP51 G307S+G450E = target: T24, CaCYP51 G307S+G450E (Candida albicans, UniProt P10613, G307S/G450E)
T24 construct: made in house; host or cells: E. coli DH5α (pCWori+)
Description: as §1

CaCYP51 I471T = target: T25, CaCYP51 I471T (Candida albicans, UniProt P10613, I471T)
T25 construct: made in house; host or cells: E. coli DH5α (pCWori+)
Description: as §1

CaCYP51 G307S = target: T26, CaCYP51 G307S (Candida albicans, UniProt P10613, G307S)
T26 construct: made in house; host or cells: E. coli DH5α (pCWori+)
Description: as §1

CaCYP51 Y132F+K143R = target: T27, CaCYP51 Y132F+K143R (Candida albicans, UniProt P10613, K143R/Y132F)
T27 construct: made in house; host or cells: E. coli DH5α (pCWori+)
Description: as §1

CaCYP51 Y132F+F145L = target: T28, CaCYP51 Y132F+F145L (Candida albicans, UniProt P10613, F145L/Y132F)
T28 construct: made in house; host or cells: E. coli DH5α (pCWori+)
Description: as §1

[1] = 0.25 h, 4 μM triazole, % of activity without triazole, read-out: Residual CYP51 activity (%) ± SD
[2] = 0.25 h, read-out: Residual CYP51 activity (%) ± SD

T13 sequence (P10613 whole entry, looked up, natural form): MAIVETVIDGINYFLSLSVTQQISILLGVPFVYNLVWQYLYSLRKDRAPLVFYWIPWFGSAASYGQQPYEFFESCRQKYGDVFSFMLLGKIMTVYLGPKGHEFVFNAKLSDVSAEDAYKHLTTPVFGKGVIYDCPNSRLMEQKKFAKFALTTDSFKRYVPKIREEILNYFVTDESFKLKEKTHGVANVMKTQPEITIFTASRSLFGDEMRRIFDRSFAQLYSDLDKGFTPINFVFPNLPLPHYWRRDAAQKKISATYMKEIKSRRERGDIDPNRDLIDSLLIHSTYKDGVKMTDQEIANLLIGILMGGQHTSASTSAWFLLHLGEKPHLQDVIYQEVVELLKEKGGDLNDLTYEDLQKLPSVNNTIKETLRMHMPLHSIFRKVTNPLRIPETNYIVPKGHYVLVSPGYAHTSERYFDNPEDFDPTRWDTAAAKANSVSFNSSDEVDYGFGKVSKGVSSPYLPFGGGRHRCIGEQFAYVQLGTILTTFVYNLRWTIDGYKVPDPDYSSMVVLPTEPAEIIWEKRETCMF
T5 sequence (P10613 whole entry, looked up, stated change not applied): as the sequence (P10613 whole entry, looked up, natural form) above
T18 sequence (P10613 whole entry, looked up, stated change not applied): as the sequence (P10613 whole entry, looked up, natural form) above
T16 sequence (P10613 whole entry, looked up, stated change not applied): as the sequence (P10613 whole entry, looked up, natural form) above
T24 sequence (P10613 whole entry, looked up, stated change not applied): as the sequence (P10613 whole entry, looked up, natural form) above
T3 sequence (P10613 whole entry, looked up, stated change not applied): as the sequence (P10613 whole entry, looked up, natural form) above
T7 sequence (P10613 whole entry, looked up, stated change not applied): as the sequence (P10613 whole entry, looked up, natural form) above
T1 sequence (P10613 whole entry, looked up, stated change not applied): as the sequence (P10613 whole entry, looked up, natural form) above
T14 sequence (P10613 whole entry, looked up, stated change not applied): as the sequence (P10613 whole entry, looked up, natural form) above

Compound: CCC(C)n1ncn(-c2ccc(N3CCN(c4ccc(OCC5COC(Cn6cncn6)(c6ccc(Cl)cc6Cl)O5)cc4)CC3)cc2)c1=O (stereo not drawn) [Itraconazole, itraconazole]
- remaining activity at 4 µM (CaCYP51 Y132F; [1]): 0.19 ± 0.04%
- IC50 (CaCYP51 Y132F; mean ± SD, duplicate): 309 ± 3 nM
- remaining activity at 4 µM (CaCYP51 S279F; [1]): 5.97 ± 0.35%
- IC50 (CaCYP51 S279F; mean ± SD, duplicate): 569 ± 121 nM
- remaining activity at 4 µM (CaCYP51 G448E; [1]): 1.75 ± 0.26%
- IC50 (CaCYP51 G448E; mean ± SD, duplicate): 238 ± 13 nM
- remaining activity at 4 µM (CaCYP51 D278N+G464S; [1]): 3.19 ± 0.46%
- IC50 (CaCYP51 D278N+G464S; mean ± SD, duplicate): 403 ± 11 nM
- remaining activity at 4 µM (CaCYP51 V437I; [1]): 0.13 ± 0.02%
- IC50 (CaCYP51 V437I; mean ± SD, duplicate): 293 ± 22 nM
- remaining activity at 4 µM (CaCYP51 Y447H; [1]): 1.45 ± 0.06%
- IC50 (CaCYP51 Y447H; mean ± SD, duplicate): 299 ± 39 nM
- remaining activity at 4 µM (CaCYP51 F449Y; [1]): 0.84 ± 0.57%
- IC50 (CaCYP51 F449Y; mean ± SD, duplicate): 222 ± 11 nM
- remaining activity at 4 µM (CaCYP51 S405F; [1]): 2.73 ± 0.13%
- IC50 (CaCYP51 S405F; mean ± SD, duplicate): 350 ± 19 nM
- remaining activity at 4 µM (CaCYP51 Y118A; [1]): 1.3 ± 0.59%
- IC50 (CaCYP51 Y118A; mean ± SD, duplicate): 170 ± 16 nM
- remaining activity at 4 µM (CaCYP51 P230L; [1]): 0.06 ± 0.01%
- IC50 (CaCYP51 P230L; mean ± SD, duplicate): 265 ± 38 nM
- remaining activity at 4 µM (CaCYP51 F145L; [1]): 1.99 ± 0.04%
- IC50 (CaCYP51 F145L; mean ± SD, duplicate): 300 ± 13 nM
- remaining activity at 4 µM (CaCYP51 G464S; [1]): 0.54 ± 0.11%
- IC50 (CaCYP51 G464S; mean ± SD, duplicate): 282 ± 6 nM
- remaining activity at 4 µM (CaCYP51 Wild type; [1]): 0.03 ± 0.02%
- IC50 (CaCYP51 Wild type; mean ± SD, duplicate, read-out: IC50): 390 nM and 389 nM
- remaining activity at 4 µM (CaCYP51 Y132H+K143R; [1]): 0.7 ± 0.03%
- IC50 (CaCYP51 Y132H+K143R; mean ± SD, duplicate): 237 ± 7 nM
- remaining activity at 4 µM (CaCYP51 F126V; [1]): 0.22 ± 0.05%
- IC50 (CaCYP51 F126V; mean ± SD, duplicate): 206 ± 9 nM
- remaining activity at 4 µM (CaCYP51 R467K; [1]): 0.45 ± 0.17%
- IC50 (CaCYP51 R467K; mean ± SD, duplicate): 235 ± 18 nM
- IC50 (CaCYP51 Y132H): 150 ± 28 nM
- remaining activity at 4 µM (CaCYP51 Y257H; [1]): 1.37 ± 0.28%
- IC50 (CaCYP51 Y257H; mean ± SD, duplicate): 336 ± 14 nM
- remaining activity at 4 µM (CaCYP51 G450E; [1]): 7.66 ± 0.54%
- IC50 (CaCYP51 G450E; mean ± SD, duplicate): 458 ± 70 nM
- remaining activity at 4 µM (CaCYP51 D278N; [1]): 3 ± 0.19%
- IC50 (CaCYP51 D278N; mean ± SD, duplicate): 545 ± 44 nM
- remaining activity at 4 µM (CaCYP51 Q474K; [1]): 0.49 ± 0.04%
- IC50 (CaCYP51 Q474K; mean ± SD, duplicate): 246 ± 6 nM
- remaining activity at 4 µM (CaCYP51 V456I; [1]): 3.21 ± 0.07%
- IC50 (CaCYP51 V456I; mean ± SD, duplicate): 603 ± 2 nM
- IC50 (CaCYP51 V488I): 449 ± 16 nM
- remaining activity at 4 µM (CaCYP51 G307S+G450E; [1]): 0.2 ± 0.04%
- IC50 (CaCYP51 G307S+G450E; mean ± SD, duplicate): 318 ± 17 nM
- remaining activity at 4 µM (CaCYP51 I471T; [1]): 1.21 ± 0.01%
- IC50 (CaCYP51 I471T; mean ± SD, duplicate): 218 ± 2 nM
- remaining activity at 4 µM (CaCYP51 G307S; [1]): 0.53 ± 0.21%
- IC50 (CaCYP51 G307S; mean ± SD, duplicate): 225 ± 7 nM
- IC50 (CaCYP51 Y132F+K143R): 190 ± 2 nM
- remaining activity at 4 µM (CaCYP51 Y132F+K143R; [2]): 0.23 ± 0.13%
- IC50 (CaCYP51 Y132F+F145L): 364 ± 23 nM
- remaining activity at 4 µM (CaCYP51 Y132F+F145L; [2]): 0.91 ± 0.05%
